{
  "source": "patent US20230135373A1",
  "about": "“METHODS AND COMPOSITIONS FOR TREATING SLEEP APNEA” (APNIMED, INC. (DELAWARE), priority 2020, published 2023)",
  "key": {"[1]": {"tested_on": "healthy human individuals", "assay": "Pilot study of genioglossus muscle activity (EMGGG)", "type": "in vivo", "protocol": "In healthy human individuals, the effect of once daily taltirelin 5 mg on genioglossus muscle activity is measured in a pilot study.\nA first group of the patients is given once daily taltirelin 5 mg. A second group of patients is given placebo. Genioglossus muscle activity (EMGGG, quantified as a percentage of maximum) is measured during quiet wakefulness. Each peak EMGGG of a single breath is measured and is plotted against the corresponding epiglottic pressure. In addition, EMGGG is measured during stable NREM sleep."}, "[2]": {"tested_on": "OSA human patients", "assay": "Placebo-controlled, double-blinded, randomized, crossover trial in OSA", "type": "in vivo", "conditions": "once daily 5-10 mg, 30 minutes before sleep", "protocol": "A placebo-controlled, double-blinded, randomized, crossover trial in OSA human patients is performed. Participants receive treatment (once daily taltirelin 5-10 mg) or placebo in randomized order 30 minutes before sleep."}},
  "data": [
    {"smiles": "CN1C(=O)C[C@@H](C(=O)N[C@@H](Cc2cnc[nH]2)C(=O)N2CCC[C@H]2C(N)=O)NC1=O", "note": "[taltirelin]", "values": [
      {"measurement": "EMGGG activity during NREM sleep compared to placebo", "setting": "[1]; once daily 5 mg, NREM sleep", "result": "much higher EMGGG activity"},
      {"measurement": "effect during REM sleep", "setting": "[1]; once daily 5 mg, subjects exhibiting REM sleep", "result": "effective during REM sleep"},
      {"measurement": "sleep-related reduction in pharyngeal muscle activity (EMGGG)", "setting": "[1]; once daily taltirelin 5 mg vs placebo night, during sleep", "result": "partially or completely prevented"},
      {"measurement": "genioglossus muscle responsiveness to an increase in ventilatory drive", "setting": "[2]", "result": "increased genioglossus muscle responsiveness"},
      {"measurement": "oxygen levels (SaO2)", "setting": "[2]", "result": "increased oxygen levels"},
      {"measurement": "sleep efficiency", "setting": "[2]", "result": "improved sleep efficiency"},
      {"measurement": "total sleep time", "setting": "[2]", "result": "increased total sleep time"},
      {"measurement": "upper airway muscle activity", "setting": "[2]", "result": "improved upper airway muscle activity"},
      {"measurement": "ventilation", "setting": "[2]", "result": "improved ventilation"},
      {"measurement": "OSA severity", "setting": "[2]; all patients", "result": "improvement in OSA severity"},
      {"measurement": "apnea hypopnea index", "setting": "[2]; vs placebo", "result": "reduce the apnea hypopnea index"}
    ]}
  ]
}
